In the supplement of paper PMC11061612:

Experiments:
Assay in all cases: Bliss excess, mean over the matrix (fraction); higher = more synergy
[1] = system: EFO-21 (Ovarian Carcinoma)
Method in brief: (§1)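 Cell lines grown in DMEM/F12 or RPMI with 10% FBS were plated in 1536-well plates and held 24 hours at 37°C, 5% CO2 before 72 hours of exposure to two-drug dose matrices, with DMSO typically at 0.2%. CellTiter-Glo 2.0 luminescence gave viability, which was converted to inhibition. Vehicle wells were set to 0 and blank wells to 1. Combination Emax is the second-highest inhibition in the matrix, and Bliss excess is the observed combination effect minus the expected EA + EB − EA·EB, where EA and EB are the single-agent effects.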

SK-N-AS (Neuroblastoma) = system: SK-N-AS (Neuroblastoma)
Method in brief: as §1

[2] = system: OE33 (Esophageal Adenocarcinoma)
Method in brief: as §1

[3] = system: MOG-G-UVW (Low Grade Glioma)
Method in brief: as §1

[4] = system: MDA-MB-453 (Breast Carcinoma)
Method in brief: as §1

[5] = system: ME-180 (Cervical Carcinoma)
Method in brief: as §1

[6] = system: SW982 (Other Solid Carcinomas)
Method in brief: as §1

[7] = system: DU-145 (Prostate Carcinoma)
Method in brief: as §1

[8] = system: Ca-Ski (Cervical Carcinoma)
Method in brief: as §1

[9] = system: NCI-H522 (Lung Adenocarcinoma)
Method in brief: as §1

[10] = system: HAL-01 (B-Lymphoblastic Leukemia)
Method in brief: as §1

| SMILES | Bliss excess [1] | Bliss excess (SK-N-AS (Neuroblastoma)) | Bliss excess [2] | Bliss excess [3] | Bliss excess [4] | Bliss excess [5] | Bliss excess [6] | Bliss excess [7] | Bliss excess [8] | Bliss excess [9] | Bliss excess [10] |
| --- | --- | --- | --- | --- | --- | --- | --- | --- | --- | --- | --- |
| C=CCn1c(=O)c2cnc(Nc3ccc(N4CCN(C)CC4)cc3)nc2n1-c1cccc(C(C)(C)O)n1 [AZD1775] + CCc1c2c(nc3ccc(O)cc13)-c1cc3c(c(=O)n1C2)COC(=O)[C@]3(O)CC [SN-38] (first compound max 1 µM, partner max 0.3 µM) | -0.0193 | 0.0032 | -0.0694 | 0.0228 | -0.0113 | -0.0039 | -0.0158 | -0.0641 | 0.0285 | 0.0912 | -0.0249 |
| C=CCn1c(=O)c2cnc(Nc3ccc(N4CCN(C)CC4)cc3)nc2n1-c1cccc(C(C)(C)O)n1 [AZD1775] + Nc1ccn([C@@H]2O[C@H](CO)[C@@H](O)C2(F)F)c(=O)n1 [Gemcitabine] (first compound max 1 µM, partner max 0.3 µM) | -0.0653 | -0.0254 | -0.0157 | 0.0183 | -0.0309 | 0.0154 | -0.0248 | -0.0385 | 0.0644 | 0.0486 | -0.0026 |
| CN(CCO)CC[C@H](CSc1ccccc1)Nc1ccc(S(=O)(=O)NC(=O)c2ccc(N3CCC([C@@H](O)c4ccccc4-c4ccc(Cl)cc4)CC3)cc2)cc1S(=O)(=O)C(F)(F)F [AZD4320] + CS(=O)(=O)CCNCc1ccc(-c2ccc3ncnc(Nc4ccc(OCc5cccc(F)c5)c(Cl)c4)c3c2)o1 [Lapatinib] (first compound max 1 µM, 7x7, partner max 10 µM) | -0.0104 | -0.0397 | 0.0519 | 0.0193 | -0.0554 | 0.0726 | 0.0799 | -0.028 | 0.127 | -0.0206 | 0.193 |
| Cc1c2c(nn1C)CSCc1cc(n(C)n1)CSc1cc(c3ccccc3c1)OCCCc1c(C(=O)O)n(C)c3c-2c(Cl)ccc13 [AZD5991] + CC(=O)O[C@H]1C(=O)[C@@]2(C)[C@H]([C@H](OC(=O)c3ccccc3)[C@]3(O)C[C@H](OC(=O)[C@H](O)[C@@H](NC(=O)c4ccccc4)c4ccccc4)C(C)=C1C3(C)C)[C@]1(OC(C)=O)CO[C@@H]1C[C@@H]2O [Paclitaxel] (first compound max 1 µM, 7x7, partner max 3 µM) | 0.0151 | -0.0065 | -0.0386 | 0.0217 | 0.231 | 0.0258 | -0.0039 | 0.0077 | 0.0422 | 0.056 | -0.0179 |
| Cc1c2c(nn1C)CSCc1cc(n(C)n1)CSc1cc(c3ccccc3c1)OCCCc1c(C(=O)O)n(C)c3c-2c(Cl)ccc13 [AZD5991] + CS(=O)(=O)CCNCc1ccc(-c2ccc3ncnc(Nc4ccc(OCc5cccc(F)c5)c(Cl)c4)c3c2)o1 [Lapatinib] (first compound max 1 µM, 7x7, partner max 10 µM) | 0.0347 | -0.0363 | -0.042 | -0.0158 | 0.0116 | 0.0624 | -0.0151 | -0.034 | 0.0164 | 0.0118 | 0.162 |
| Cc1c2c(nn1C)CSCc1cc(n(C)n1)CSc1cc(c3ccccc3c1)OCCCc1c(C(=O)O)n(C)c3c-2c(Cl)ccc13 [AZD5991] + Nc1ccn([C@@H]2O[C@H](CO)[C@@H](O)C2(F)F)c(=O)n1 [Gemcitabine] (first compound max 1 µM, 7x7, partner max 0.3 µM) | -0.0204 | 0.0183 | 0.0018 | 0.0085 | 0.0145 | -0.036 | -0.0594 | -0.0284 | 0.0354 | 0.091 | 0.0025 |
| C[C@@H]1COCCN1c1cc(C2([S@](C)(=N)=O)CC2)nc(-c2ccnc3[nH]ccc23)n1 [AZD6738] + C1CC(C1)(C(=O)[O-])C(=O)[O-].N.N.[Pt+2] [Carboplatin] (first compound max 10 µM, 7x7, partner max 10 µM) | -0.0606 | -0.0538 | -0.0416 | -0.0044 | -0.0327 | -0.013 | -0.0453 | -0.043 | 0.0041 | -0.0584 | -0.0435 |
| C[C@@H]1COCCN1c1cc(C2([S@](C)(=N)=O)CC2)nc(-c2ccnc3[nH]ccc23)n1 [AZD6738] + Nc1ccn([C@@H]2O[C@H](CO)[C@@H](O)C2(F)F)c(=O)n1 [Gemcitabine] (first compound max 10 µM, 7x7, partner max 0.3 µM) | 0.0847 | 0.0469 | -0.0518 | 0.0856 | -0.0251 | 0.0564 | 0.0352 | 0.0742 | 0.0982 | 0.122 | -0.0031 |
| C[C@@H](Nc1cc(F)cc(F)c1)c1cc(C(=O)N(C)C)cc2c(=O)cc(N3CCOCC3)oc12 [AZD8186] + C1CN(CCC1(C(=O)N[C@@H](CCO)C2=CC=C(C=C2)Cl)N)C3=NC=NC4=C3C=CN4 [AZD5363] (first compound max 10 µM, 7x7, partner max 10 µM) | -0.0376 | -0.0294 | -0.0329 | -0.0364 | 0.0219 | -0.0133 | -0.0763 | -0.0038 | -0.0032 | -0.0426 | -0.0657 |
